# Source: patent publication US5532382A, “Benzothiophenes substituted at the 3-carbonyl” (Eli Lilly and Company, priority 1995, dated 1996)
# Tested on: production of thromboxane B2 (T×B2) in plasma-depleted blood
# Experiment: Inhibition of Eicosanoid Production by Plasma-depleted Blood: TxB2
# Format: cell-based
# Conditions: Homo sapiens, read-out: Plasma DPLTD Blood TxB2 IC50
# Procedure: Inhibition of Eicosanoid Production by Plasma-depleted Blood.
# Compounds are evaluated for their ability to inhibit production of leukotriene B4 (LTB4) and thromboxane B2 (T×B2) upon stimulation of human plasma-depleted blood with formyl-methionyl-leucyl-phenylalanine (FMLP) and thrombin. LTB4 is produced by neutrophils and T×B2 by platelets stimulated at their respective receptors with FMLP and thrombin. The assay is carried out in 1 ml deep well polypropylene 96-well plates (Beckman). For the test, ten ml of blood is collected in EDTA at a final concentration of 1.5 mg/ml. Then, 40 ml glucose phosphate buffer containing 0.1% gelatin is added and the suspension centrifuged at 900 g for 10 minutes at room temperature. The supernatant is discarded and the cells washed once with 50 ml buffer before resuspending them in 50 ml Krebs-Ringers-Henseleit Buffer containing 0.1% gelatin, 1 mM […], 1.1 mM MgCl2 (KRH buffer). Working solutions of test compounds are made by dissolving the material in DMSO at 10 mM and diluting with appropriate amounts of KRH buffer. An agonist solution is made containing 1 μM FMLP (sigma) and 10 units/ml of thrombin in KRH buffer (Enzyme Research Labs). […] The amount of LTB4 and T×B2 produced is determined by the use of a competetive enzyme immunoassay using commercial reagents from Cayman Chemical.
row,SMILES,IC50
1,O=C(c1ccc(O)cc1)c1c(-c2ccc(O)cc2)sc2cc(O)ccc12 [Compound D],> 9.8 µM

# Tested on: MCII cells
# Experiment: MCII MAST CELL TOXICITY ASSAY (XTT)
# Format: cell-based, mouse
# Conditions: XTT formazan, 37° C. 4-12 hours; read-out: MCII Mast Cell Toxicity IC50
# Excerpt: MCII MAST CELL TOXICITY ASSAY
# This toxicity assay is run in parallel with the MCII mast cell LTC4 assay and serves as an indicator of compound effects on the viability and metabolic activity of the MCII cells. This "toxicity" assay is based on the ability of dehydrogenase enzymes present in viable metabolically active cells to bioreduce the tetrazolium salt XTT yielding a colored, water soluble formazan product. (see, Roehm et al.) An improved colorimetric assay for cell proliferation and viability utilizing the tetrazolium salt XTT. J. Immunol. Methods 142:257-65 (1991).
# A duplicate polystyrene 96-well tissue culture plate (Costar) is set up with sensitized MCII cells, EM95 ascites, media and dilutions of the test compound as described above. The complete media is supplemented with concanavalin A induced culture supernatants from the mouse helper T cell clone D10.G4, as a source of mast cell growth factors.
# Wells of the toxicity assay Elate are pulsed with 25 μl XTT (Sigma) plus phenazine methosulfate (Aldrich) giving a final concentration of 0.2 mg/ml XTT and 25 μM phenazine methosulfate. The plates are incubated at 37° C. in 10% CO2 for 4-12 hours and then production of the XTT formazan product determined by measuring the optical density of the wells at a wavelength of 450 nm. The positive control on each plate is stimulated MCII cells with dimethyl sulfoxide vehicle alone and the negative control is the same reaction mixture without cells. The background negative control value is subtracted from experimental and positive control values and the data are reported as percent of positive control.
row,SMILES,CC50
1,"O=C(c1ccc2ccccc2c1)c1c(-c2ccc(O)cc2)sc2cc(O)ccc12 [Example 3, 6-hydroxyphenl-2-(p-hydroxyphenyl)-(benzo(B)thien-3-yl) (β-napthyl)methanone]",> 10 µM
2,O=C(c1ccccc1)c1c(-c2ccc(O)cc2)sc2cc(O)ccc12 [Compound A],0.3 µM
3,"O=C(c1ccc(-c2ccccc2)cc1)c1c(-c2ccc(O)cc2)sc2cc(O)ccc12 [Example 1, 6-hydroxyphenyl-2-(p-hydroxyphenyl)-(benzo(B)thien-3-yl)(p-phenyl)phenyl methanone]",> 10 µM
4,"O=C(c1cccc2ccccc12)c1c(-c2ccc(O)cc2)sc2cc(O)ccc12 [Example 2, 6-hydroxyphenyl-2-(p-hydroxyphenyl)-(benzo(B)thien-3-yl) (α-naphyl)methanone]",> 10 µM
5,Oc1ccc(-c2cc3ccc(O)cc3s2)cc1 [Compound B],< 10 µM
